Assay results as given in patent US6015822A, “Sulfonamide-substituted fused 5-membered ring compounds, their use as a medicament, and pharmaceutical preparations comprising them” (Hoechst Marion Roussel Deutschland GmbH, priority 1997, dated 2000).

Biological target: T1, human IsK protein (UniProt P15382+P70057)
T1 construct: expressed in transfected cells; host or cells: Xenopus laevis oocytes injected with in vitro synthesized IsK RNA
Assay: Inhibition of IsK current in Xenopus oocytes expressing human IsK (two microelectrode voltage clamp)
Type: cell-based
Settings: human IsK expressed in Xenopus oocytes; voltage jumps to -10 mV lasting 15 s; pH 7.5; room temperature; extrapolated using the Hill equation; read-out: IC-50 (inhibition of IsK control current)
Protocol: IsK channels from man, rat or guinea-pig were expressed in Xenopus oocytes. To do this, oocytes were first isolated from Xenopus Laevis and defolliculated. IsK -encoding RNA synthesized in vitro was then injected into these oocytes. After IsK protein expression for 2-8 days, IsK currents were measured in the oocytes using the two microelectrode voltage clamp technique. The IsK channels were in this case as a rule activated using voltage jumps to -10 mV lasting 15 s. The bath was irrigated with a solution of the following composition: NaCl 96 mM, KCl 2 mM, CaCl2 1.8 mM, MgCl2 1 mM, HEPES 5 mM (titrated with NaOH to pH 7.5). These experiments were carried out at room temperature. The following were employed for acquiring data and analysis: Geneclamp amplifier (Axon Instruments, Foster City, U.S.A.) and MacLab D/A converter and software (ADInstruments, Castle Hill, Australia). The substances according to the invention were tested by adding them to the bath solution in different concentrations. The effects of the substances were calculated as the percentage inhibition of the IsK control current, which was obtained when no substance was added to the solution. The data were then extrapolated using the Hill equation in order to determine the inhibitory concentrations IC50 for the respective substances.
In the described manner, using the human IsK protein, the following IC50 values were determined for the compounds according to the invention: […]

T1 sequence (P70057 whole entry): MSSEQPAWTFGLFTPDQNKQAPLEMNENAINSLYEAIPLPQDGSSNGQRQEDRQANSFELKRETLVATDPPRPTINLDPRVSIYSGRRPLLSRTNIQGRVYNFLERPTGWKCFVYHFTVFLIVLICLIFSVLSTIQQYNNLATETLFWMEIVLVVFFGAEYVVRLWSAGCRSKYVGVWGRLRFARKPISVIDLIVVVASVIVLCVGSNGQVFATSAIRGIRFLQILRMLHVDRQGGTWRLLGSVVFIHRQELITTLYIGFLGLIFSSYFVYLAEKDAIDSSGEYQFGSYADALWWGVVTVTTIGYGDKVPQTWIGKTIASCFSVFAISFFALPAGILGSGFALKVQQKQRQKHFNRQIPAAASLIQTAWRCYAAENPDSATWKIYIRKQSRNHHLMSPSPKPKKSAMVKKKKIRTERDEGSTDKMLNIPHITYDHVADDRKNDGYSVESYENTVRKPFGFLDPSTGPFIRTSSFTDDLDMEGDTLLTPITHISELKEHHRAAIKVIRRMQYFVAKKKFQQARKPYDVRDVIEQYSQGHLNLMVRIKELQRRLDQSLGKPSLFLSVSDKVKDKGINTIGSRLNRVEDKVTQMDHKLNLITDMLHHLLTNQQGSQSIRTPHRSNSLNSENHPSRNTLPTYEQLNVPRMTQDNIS

IC50	SMILES
> 10 µM	CCCCN(C1CS(=O)(=O)c2ccccc21)S(C)(=O)=O (stereo not shown) [Example 5, N-Butyl-N-(1,1-dioxo-2,3-dihydro-1H-benzo[b]thiophen-3-yl)-methanesulfonamide]
~2 µM	CC1(C)CC(N(Cc2ccncc2)S(C)(=O)=O)c2cc([N+](=O)[O-])ccc21 (stereo not shown) [Example 12, 3,3-Dimethyl-6-nitro-1-[N-(4-pyridylmethyl)-N-methylsulfonyl]aminoindan]
~15 µM	CCS(=O)(=O)N(C)C1CC(C)(C)c2ccccc21 (stereo not shown) [Example 2, 3,3-Dimethyl-1-(N-ethylsulfonyl-N-methyl)aminoindan]
< 10 µM	CCCCCCN(C1CC(C)(C)c2ccccc21)S(C)(=O)=O (stereo not shown) [Example 3, 3,3-Dimethyl-1-(N-hexyl-N-methylsulfonyl)aminoindan]
2.7 µM	CCCCN(C1CC(C)(C)c2ccc([N+](=O)[O-])cc21)S(C)(=O)=O (stereo not shown) [Example 11, 3,3-Dimethyl-6-nitro-1-(N-butyl-N-methylsulfonyl)aminoindan]

SMILES	IC50
CCCCOc1ccc2c(c1)C(N(CC)S(C)(=O)=O)CC2(C)C (stereo not shown) [Example 14, 6-Butoxy-3,3-dimethyl-1-(N-ethyl-N-methylsulfonyl)aminoindan]	0.44 µM
CCCCOc1ccc2c(c1)C(N(C)S(C)(=O)=O)CC2(C)C (stereo not shown) [Example 13, 6-Butoxy-3,3-dimethyl-1-(N-methyl-N-methylsulfonyl)aminoindan]	1.2 µM
